In assay [1] the target is T1, D(4) dopamine receptor (Homo sapiens, UniProt P21917).
T1 sequence (P21917 whole entry): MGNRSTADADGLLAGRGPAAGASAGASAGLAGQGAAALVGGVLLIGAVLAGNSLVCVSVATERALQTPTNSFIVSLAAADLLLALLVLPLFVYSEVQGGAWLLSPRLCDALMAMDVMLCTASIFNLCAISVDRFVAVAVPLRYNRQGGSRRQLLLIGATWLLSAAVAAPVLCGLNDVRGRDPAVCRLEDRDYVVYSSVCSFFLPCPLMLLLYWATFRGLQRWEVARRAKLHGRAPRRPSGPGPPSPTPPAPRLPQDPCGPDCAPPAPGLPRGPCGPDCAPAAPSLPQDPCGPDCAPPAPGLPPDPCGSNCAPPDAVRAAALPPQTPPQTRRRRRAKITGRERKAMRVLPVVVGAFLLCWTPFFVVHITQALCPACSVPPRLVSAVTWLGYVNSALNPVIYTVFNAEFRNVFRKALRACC

The target in assay [2] is T2, Estrogen receptor (Homo sapiens, UniProt P03372).
T2 sequence (P03372 whole entry): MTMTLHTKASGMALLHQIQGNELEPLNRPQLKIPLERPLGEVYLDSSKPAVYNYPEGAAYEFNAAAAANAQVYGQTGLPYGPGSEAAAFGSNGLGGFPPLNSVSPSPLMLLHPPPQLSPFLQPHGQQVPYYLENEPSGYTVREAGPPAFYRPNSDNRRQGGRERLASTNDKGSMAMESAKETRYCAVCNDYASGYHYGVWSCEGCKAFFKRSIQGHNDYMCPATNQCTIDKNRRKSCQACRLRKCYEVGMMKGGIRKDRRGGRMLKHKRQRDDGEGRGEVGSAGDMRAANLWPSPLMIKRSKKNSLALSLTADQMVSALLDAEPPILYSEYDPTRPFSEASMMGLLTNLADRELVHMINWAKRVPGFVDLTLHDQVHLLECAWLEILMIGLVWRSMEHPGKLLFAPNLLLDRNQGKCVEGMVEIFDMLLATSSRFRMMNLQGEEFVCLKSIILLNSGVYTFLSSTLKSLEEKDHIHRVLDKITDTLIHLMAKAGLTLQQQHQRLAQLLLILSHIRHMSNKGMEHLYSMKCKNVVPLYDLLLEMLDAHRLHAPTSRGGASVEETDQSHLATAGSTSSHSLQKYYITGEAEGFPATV
The assay is classed as functional.

Assay [3] concerns the target Estrogen receptor beta (Homo sapiens, UniProt Q92731).
Assay [4] addresses T3, Glucocorticoid receptor (Homo sapiens, UniProt P04150).
T3 sequence (P04150 whole entry): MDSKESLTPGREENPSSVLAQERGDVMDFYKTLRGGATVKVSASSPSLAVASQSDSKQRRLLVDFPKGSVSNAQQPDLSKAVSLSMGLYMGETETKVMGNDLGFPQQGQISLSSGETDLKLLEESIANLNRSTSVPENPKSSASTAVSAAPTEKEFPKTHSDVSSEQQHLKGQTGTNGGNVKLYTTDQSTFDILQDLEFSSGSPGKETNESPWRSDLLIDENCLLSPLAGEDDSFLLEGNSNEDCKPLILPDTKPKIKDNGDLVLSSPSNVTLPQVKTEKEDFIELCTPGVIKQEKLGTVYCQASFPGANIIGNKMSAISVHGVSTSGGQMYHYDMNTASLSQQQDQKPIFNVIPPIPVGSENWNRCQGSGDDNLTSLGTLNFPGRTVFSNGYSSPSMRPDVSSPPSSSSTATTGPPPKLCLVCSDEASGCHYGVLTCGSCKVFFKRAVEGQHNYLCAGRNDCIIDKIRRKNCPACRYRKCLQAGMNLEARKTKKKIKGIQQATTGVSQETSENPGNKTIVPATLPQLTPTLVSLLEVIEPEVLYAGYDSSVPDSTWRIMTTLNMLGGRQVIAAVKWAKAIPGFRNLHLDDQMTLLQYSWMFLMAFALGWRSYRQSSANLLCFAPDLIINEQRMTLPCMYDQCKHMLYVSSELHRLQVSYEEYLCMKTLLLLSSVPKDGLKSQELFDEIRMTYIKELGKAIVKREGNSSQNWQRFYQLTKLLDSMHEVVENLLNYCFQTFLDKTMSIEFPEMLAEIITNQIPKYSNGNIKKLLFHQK
The assay is classed as functional.

In assay [5] the target is T3, Glucocorticoid receptor. In kind it is functional. The source holds these as a separate data set.
Assay [6] deals with D(1A) dopamine receptor (Homo sapiens, UniProt P21728).
Chain of D(1A) dopamine receptor (P21728 whole entry): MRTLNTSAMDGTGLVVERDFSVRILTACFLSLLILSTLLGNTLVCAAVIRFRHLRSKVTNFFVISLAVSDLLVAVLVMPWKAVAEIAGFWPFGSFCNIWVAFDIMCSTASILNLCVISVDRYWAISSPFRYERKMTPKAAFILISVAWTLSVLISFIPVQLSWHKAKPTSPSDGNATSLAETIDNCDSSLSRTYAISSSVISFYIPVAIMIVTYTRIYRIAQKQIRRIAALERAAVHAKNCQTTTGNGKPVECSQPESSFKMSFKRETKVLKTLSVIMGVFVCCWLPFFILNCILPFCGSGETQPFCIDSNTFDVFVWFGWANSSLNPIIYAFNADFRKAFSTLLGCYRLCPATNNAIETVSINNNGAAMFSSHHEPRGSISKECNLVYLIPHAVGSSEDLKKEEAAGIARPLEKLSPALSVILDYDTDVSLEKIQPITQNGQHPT
The target in assay [7] is Substance-P receptor (Homo sapiens, UniProt P25103).
Chain of Substance-P receptor (P25103 whole entry): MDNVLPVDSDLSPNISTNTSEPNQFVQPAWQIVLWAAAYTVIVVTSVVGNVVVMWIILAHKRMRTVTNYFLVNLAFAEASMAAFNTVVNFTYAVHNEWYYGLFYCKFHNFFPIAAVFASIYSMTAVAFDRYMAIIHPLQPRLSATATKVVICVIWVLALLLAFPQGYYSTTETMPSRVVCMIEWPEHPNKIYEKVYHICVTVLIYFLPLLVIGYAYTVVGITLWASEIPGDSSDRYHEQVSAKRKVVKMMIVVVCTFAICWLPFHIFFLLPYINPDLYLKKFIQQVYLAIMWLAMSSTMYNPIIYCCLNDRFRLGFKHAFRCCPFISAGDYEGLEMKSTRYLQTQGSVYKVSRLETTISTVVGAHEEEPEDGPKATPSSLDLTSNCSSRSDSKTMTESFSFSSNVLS
The target of assay [8] is Sodium channel protein type 5 subunit alpha (Homo sapiens, UniProt Q14524). In kind it is functional, cell-based.
Chain of Sodium channel protein type 5 subunit alpha (Q14524 whole entry): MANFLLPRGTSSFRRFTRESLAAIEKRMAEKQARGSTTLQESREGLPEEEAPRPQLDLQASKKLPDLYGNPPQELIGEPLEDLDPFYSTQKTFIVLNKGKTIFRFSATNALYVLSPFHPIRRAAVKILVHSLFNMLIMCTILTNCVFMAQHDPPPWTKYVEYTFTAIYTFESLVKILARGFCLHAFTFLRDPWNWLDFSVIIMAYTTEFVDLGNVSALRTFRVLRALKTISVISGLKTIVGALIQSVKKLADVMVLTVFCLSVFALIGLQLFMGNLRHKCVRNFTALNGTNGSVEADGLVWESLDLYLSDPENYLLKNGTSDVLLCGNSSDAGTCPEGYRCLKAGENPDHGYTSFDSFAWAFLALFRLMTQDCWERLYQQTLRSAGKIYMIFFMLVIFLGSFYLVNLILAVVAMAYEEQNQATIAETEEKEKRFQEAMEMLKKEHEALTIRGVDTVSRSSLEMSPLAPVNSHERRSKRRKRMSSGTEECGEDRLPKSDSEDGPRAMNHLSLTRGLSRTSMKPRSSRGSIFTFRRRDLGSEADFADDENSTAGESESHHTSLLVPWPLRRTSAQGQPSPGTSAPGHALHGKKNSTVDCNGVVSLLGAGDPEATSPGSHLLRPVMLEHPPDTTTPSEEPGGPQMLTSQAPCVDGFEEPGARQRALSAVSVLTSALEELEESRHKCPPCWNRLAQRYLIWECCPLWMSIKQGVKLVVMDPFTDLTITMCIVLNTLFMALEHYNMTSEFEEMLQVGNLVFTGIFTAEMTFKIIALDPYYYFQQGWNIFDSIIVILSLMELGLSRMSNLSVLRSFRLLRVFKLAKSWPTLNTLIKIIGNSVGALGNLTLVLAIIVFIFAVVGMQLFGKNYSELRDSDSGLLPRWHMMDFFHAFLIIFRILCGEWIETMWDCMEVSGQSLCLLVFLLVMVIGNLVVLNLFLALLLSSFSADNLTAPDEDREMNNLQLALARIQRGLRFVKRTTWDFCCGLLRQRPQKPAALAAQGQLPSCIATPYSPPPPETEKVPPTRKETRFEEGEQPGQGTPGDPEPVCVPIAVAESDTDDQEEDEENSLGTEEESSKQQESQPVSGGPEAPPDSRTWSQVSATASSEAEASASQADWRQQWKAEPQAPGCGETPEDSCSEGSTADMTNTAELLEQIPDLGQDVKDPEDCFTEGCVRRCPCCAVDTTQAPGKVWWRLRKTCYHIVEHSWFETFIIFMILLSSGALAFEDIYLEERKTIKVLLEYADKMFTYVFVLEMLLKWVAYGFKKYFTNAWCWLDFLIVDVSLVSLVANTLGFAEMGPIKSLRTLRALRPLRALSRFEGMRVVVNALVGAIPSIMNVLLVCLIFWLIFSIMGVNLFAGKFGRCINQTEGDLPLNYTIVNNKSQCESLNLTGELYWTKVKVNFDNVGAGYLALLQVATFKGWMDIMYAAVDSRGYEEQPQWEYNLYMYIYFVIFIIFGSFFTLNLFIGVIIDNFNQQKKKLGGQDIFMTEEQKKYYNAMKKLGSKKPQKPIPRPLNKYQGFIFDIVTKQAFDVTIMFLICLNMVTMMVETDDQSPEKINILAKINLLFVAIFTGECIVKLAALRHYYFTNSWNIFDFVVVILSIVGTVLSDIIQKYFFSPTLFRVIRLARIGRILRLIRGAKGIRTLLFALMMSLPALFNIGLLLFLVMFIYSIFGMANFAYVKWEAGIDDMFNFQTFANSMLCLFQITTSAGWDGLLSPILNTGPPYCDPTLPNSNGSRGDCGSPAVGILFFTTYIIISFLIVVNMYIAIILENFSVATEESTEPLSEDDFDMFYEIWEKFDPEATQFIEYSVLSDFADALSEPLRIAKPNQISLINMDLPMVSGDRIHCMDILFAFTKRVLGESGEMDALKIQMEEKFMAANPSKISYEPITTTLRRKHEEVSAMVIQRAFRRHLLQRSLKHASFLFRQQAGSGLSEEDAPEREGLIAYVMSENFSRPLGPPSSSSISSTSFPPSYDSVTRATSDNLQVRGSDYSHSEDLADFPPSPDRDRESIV
In assay [9] the target is T4, Alpha-2A adrenergic receptor (Homo sapiens, UniProt P08913).
T4 sequence (P08913 whole entry): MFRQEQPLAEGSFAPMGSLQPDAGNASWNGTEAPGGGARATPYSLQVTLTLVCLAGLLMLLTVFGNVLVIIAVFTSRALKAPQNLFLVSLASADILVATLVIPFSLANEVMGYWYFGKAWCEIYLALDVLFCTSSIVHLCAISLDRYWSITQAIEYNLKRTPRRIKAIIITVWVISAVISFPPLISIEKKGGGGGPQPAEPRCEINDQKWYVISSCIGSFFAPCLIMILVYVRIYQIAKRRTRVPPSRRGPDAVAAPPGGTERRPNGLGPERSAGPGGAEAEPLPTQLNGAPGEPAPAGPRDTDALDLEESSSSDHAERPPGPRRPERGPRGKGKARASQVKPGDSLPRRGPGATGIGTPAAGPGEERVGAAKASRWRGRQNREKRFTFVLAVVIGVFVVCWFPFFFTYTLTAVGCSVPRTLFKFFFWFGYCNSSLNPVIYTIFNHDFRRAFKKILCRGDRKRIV

In assay [10] the target is 5-hydroxytryptamine receptor 2B (Homo sapiens, UniProt P41595).
Chain of 5-hydroxytryptamine receptor 2B (P41595 whole entry): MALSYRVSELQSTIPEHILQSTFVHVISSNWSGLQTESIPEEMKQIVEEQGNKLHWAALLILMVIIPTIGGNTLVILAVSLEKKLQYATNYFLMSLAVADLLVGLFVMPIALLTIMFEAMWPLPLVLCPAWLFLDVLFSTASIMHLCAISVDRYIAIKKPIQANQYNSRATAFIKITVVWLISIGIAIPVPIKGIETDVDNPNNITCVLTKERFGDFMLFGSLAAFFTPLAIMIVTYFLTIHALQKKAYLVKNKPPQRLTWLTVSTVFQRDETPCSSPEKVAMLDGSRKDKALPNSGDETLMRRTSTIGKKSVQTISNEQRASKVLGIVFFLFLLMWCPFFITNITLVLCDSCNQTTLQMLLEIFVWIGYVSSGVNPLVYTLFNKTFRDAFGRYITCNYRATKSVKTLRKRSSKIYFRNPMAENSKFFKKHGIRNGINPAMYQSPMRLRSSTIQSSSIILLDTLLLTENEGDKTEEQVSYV
The target of assay [11] is 5-hydroxytryptamine receptor 6 (Homo sapiens, UniProt P50406).
Chain of 5-hydroxytryptamine receptor 6 (P50406 whole entry): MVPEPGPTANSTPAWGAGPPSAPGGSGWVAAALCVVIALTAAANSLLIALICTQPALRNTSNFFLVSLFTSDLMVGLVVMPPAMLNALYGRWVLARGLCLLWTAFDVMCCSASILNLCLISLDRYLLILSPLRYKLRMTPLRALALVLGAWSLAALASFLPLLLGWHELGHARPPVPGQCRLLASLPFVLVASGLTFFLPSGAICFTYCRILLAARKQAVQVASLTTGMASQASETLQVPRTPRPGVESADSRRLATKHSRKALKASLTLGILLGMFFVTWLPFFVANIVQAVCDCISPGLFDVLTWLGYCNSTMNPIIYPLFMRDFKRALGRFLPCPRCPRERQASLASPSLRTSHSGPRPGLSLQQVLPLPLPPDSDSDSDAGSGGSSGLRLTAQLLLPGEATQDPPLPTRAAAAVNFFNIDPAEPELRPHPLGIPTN
Assay [12] addresses Hydroxycarboxylic acid receptor 2 (Homo sapiens, UniProt Q8TDS4).

A word on the AC50: it is the midpoint of the concentration-response curve, whichever way the signal moves. A low value points to greater potency.
Note: assay procedure not described here.

Chain of Hydroxycarboxylic acid receptor 2 (Q8TDS4 whole entry): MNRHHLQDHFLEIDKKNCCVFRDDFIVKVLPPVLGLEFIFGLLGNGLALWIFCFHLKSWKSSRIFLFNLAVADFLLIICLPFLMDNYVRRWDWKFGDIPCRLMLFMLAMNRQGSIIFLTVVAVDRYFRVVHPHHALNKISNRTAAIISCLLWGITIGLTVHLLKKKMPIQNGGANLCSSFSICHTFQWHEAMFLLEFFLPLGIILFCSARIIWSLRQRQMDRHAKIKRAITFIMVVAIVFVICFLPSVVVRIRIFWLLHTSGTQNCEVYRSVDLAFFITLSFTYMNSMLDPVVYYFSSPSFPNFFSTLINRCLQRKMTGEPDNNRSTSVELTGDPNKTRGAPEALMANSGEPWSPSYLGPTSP
Chain of Estrogen receptor beta (Q92731 whole entry): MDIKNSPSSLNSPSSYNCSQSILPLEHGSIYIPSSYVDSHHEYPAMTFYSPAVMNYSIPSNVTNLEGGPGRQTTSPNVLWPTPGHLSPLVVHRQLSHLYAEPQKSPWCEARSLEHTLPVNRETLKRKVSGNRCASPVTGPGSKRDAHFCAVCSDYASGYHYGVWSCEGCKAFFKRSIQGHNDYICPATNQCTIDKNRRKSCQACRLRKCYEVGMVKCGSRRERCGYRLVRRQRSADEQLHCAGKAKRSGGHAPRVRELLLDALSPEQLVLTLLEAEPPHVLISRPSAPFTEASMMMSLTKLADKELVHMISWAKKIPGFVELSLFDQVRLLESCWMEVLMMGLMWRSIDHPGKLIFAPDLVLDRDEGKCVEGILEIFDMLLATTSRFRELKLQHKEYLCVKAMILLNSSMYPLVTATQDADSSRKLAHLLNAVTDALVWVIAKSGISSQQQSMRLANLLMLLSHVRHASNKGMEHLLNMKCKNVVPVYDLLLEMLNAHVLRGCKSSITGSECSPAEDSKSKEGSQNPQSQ

Consider `CCOc1nc2cccc(C(=O)O)c2n1Cc1ccc(-c2ccccc2-c2nnn[nH]2)cc1`, for which the AC50 in [1] is over 10 µM; in [2] it was over 30 µM; in assay [3], over 30 µM; in assay [4], over 30 µM; in [5], over 30 µM; in [6], over 10 µM. In addition, the AC50 is over 10 µM in assay [7]; over 50 µM in [8]; over 10 µM in [9]; over 10 µM in assay [10]; over 10 µM in [11].
As for `CCCc1nc2c(C)cc(-c3nc4ccccc4n3C)cc2n1Cc1ccc(-c2ccccc2C(=O)O)cc1`, the AC50 is over 10 µM in assay [1]; over 30 µM in assay [2]; over 30 µM in assay [3]; over 30 µM in [4]; over 30 µM in assay [5]; over 10 µM in [6]. For the same compound, the AC50 in [7] was over 10 µM; in assay [8], 27.3 µM; in assay [9], over 30 µM; in [10], over 10 µM; in [11], over 10 µM.
`O=C(O)c1ccccc1` [BENZOIC ACID] registered an AC50 in [8] of over 50 µM.
In assay [3], `CCCNC(=O)NS(=O)(=O)c1ccc(Cl)cc1` [CHLORPROPAMIDE] gave an AC50 of over 30 µM.
The compound `CCC(=O)O[C@]1(C(=O)CCl)[C@@H](C)C[C@H]2[C@@H]3CCC4=CC(=O)C=C[C@]4(C)[C@@]3(F)[C@@H](O)C[C@@]21C` [CLOBETASOL PROPIONATE] had an AC50 in [2] of over 30 µM.
For `Cc1nc(Nc2ncc(C(=O)Nc3c(C)cccc3Cl)s2)cc(N2CCN(CCO)CC2)n1` [DASATINIB], the AC50 in assay [1] is over 10 µM; in [6] it was over 10 µM; in assay [9], over 10 µM; in assay [10], 7.6 µM; in assay [11] it was over 10 µM.
Take `CC(C)Cc1ccc([C@H](C)C(=O)O)cc1` [DEXIBUPROFEN]: the AC50 in assay [2], in assay [4] and in assay [5] was over 30 µM each time.
Regarding `O=C(O)Cc1ccccc1Nc1c(Cl)cccc1Cl` [DICLOFENAC], the AC50 in assay [1] is over 10 µM; in assay [3] it was over 30 µM; in assay [6], over 10 µM; in [7] it was over 10 µM; in assay [8] it was over 30 µM; in assay [9], over 10 µM. Besides, the AC50 in assay [10] and in assay [11] was over 10 µM throughout.
Turning to `CNC[C@H](O)c1ccc(O)c(O)c1` [EPINEPHRINE], in assay [2], the AC50 was over 30 µM.
Consider `O=C(O)Cc1ccccc1Oc1ccc(Cl)cc1Cl` [FENCLOFENAC], for which the AC50 in [1], in assay [6], in assay [7], in [9], in assay [10] and in [12] was over 10 µM each time.
With `Cc1ccc(C)c(OCCCC(C)(C)C(=O)O)c1` [GEMFIBROZIL], the AC50 in [1] was over 10 µM; in assay [3], over 30 µM; in [6], over 10 µM; in assay [7], over 10 µM; in assay [9], over 10 µM; in assay [10], over 10 µM. Also, in assay [12], the AC50 was over 10 µM.
In assay [8], `CCCCCCCN(CC)CCCC(O)c1ccc(NS(C)(=O)=O)cc1` (configuration not stated) [IBUTILIDE] gave an AC50 of over 30 µM.
With `COc1cc(C(C)=O)ccc1OCCCN1CCC(c2noc3cc(F)ccc23)CC1` [ILOPERIDONE], the AC50 is 0.0209 µM in assay [1]; over 30 µM in [2]; over 30 µM in [4]; over 30 µM in [5]; 0.0684 µM in [6]; over 10 µM in [7]. Also, the AC50 worked out at 0.176 µM in [9] and 0.257 µM in assay [11].
In the case of `CC[C@H](C)C(=O)O[C@H]1C[C@@H](C)C=C2C=C[C@H](C)[C@H](CC[C@@H]3C[C@@H](O)CC(=O)O3)[C@H]21` [LOVASTATIN], the AC50 was over 10 µM in [1]; over 30 µM in [3]; over 10 µM in [6]; over 10 µM in [7]; over 30 µM in [8]; over 10 µM in assay [9]. The AC50 in assay [10] and in assay [12] was over 10 µM in each case.
Regarding `CC[C@@H](CO)NC(=O)[C@@H]1C=C2c3cccc4c3c(cn4C)C[C@H]2N(C)C1` [METHYSERGIDE], the AC50 in assay [3] stood at 24.5 µM; in assay [9], 2.42 µM.
On to `CC(CN1c2ccccc2Sc2ccccc21)N(C)C` (configuration not stated) [PROMETHAZINE], for which the AC50 in assay [3] is over 30 µM; in assay [6] it was 3.38 µM; in assay [7], over 10 µM; in [10], 0.0679 µM; in [12] it was over 10 µM.
As for `CN(CCOc1ccc(CC2SC(=O)NC2=O)cc1)c1ccccn1` (configuration not stated) [ROSIGLITAZONE], the AC50 in assay [1] is over 10 µM; in [3], over 30 µM; in assay [6], over 10 µM; in assay [7], over 10 µM; in assay [8], over 30 µM; in [9], over 30 µM. For the same compound, the AC50 in assay [10] and in [11] was over 10 µM in each case.
On to `C[C@]12C=CC(=O)C=C1CC[C@H]1[C@@H]3C[C@@H](O)[C@](O)(C(=O)CO)[C@@]3(C)C[C@H](O)[C@@]12F` [TRIAMCINOLONE], for which the AC50 in assay [4] is 1.2 µM; in assay [5], over 30 µM.
With `CC(C)[C@H](N)C(=O)OCCOCn1cnc2c(=O)[nH]c(N)nc21` [VALACYCLOVIR], the AC50 in assay [1] was over 10 µM; in assay [3] it was over 30 µM; in assay [6], over 10 µM; in assay [7], over 10 µM; in assay [9], over 10 µM; in assay [10] it was over 10 µM. Also, the AC50 in assay [12] is over 10 µM.
Regarding `COc1cc(C(=O)NS(=O)(=O)c2ccccc2C)ccc1Cc1cn(C)c2ccc(NC(=O)OC3CCCC3)cc12` [ZAFIRLUKAST], the AC50 in assay [4] and in [5] was over 30 µM in each case.
In the case of `O=C1Cc2cc(CCN3CCN(c4nsc5ccccc45)CC3)c(Cl)cc2N1` [ZIPRASIDONE], the AC50 in [3] is over 30 µM; in assay [8], over 50 µM; in [10] it was 0.0137 µM; in assay [12], over 10 µM.

For the origin of these results see ChEMBL document CHEMBL5291721, “A preclinical secondary pharmacology resource illuminates target-adverse drug reaction associations of marketed drugs” (Nat Commun, 2023).
